Source: patent publication US5149716A, “Insulin derivatives, process for their preparation, their use and a pharmaceutical preparation containing them” (Hoechst Aktiengesellschaft, priority 1989, dated 1992)

Columns and labels:
fasting male rabbits = assay: Hypoglycemic action after intravenous administration; type: in vivo, rabbit; conditions: i.v.; for Change in blood glucose from starting value: 6.25 microliters/kg of 2.2 mg in 1.5 ml 0.9% NaCl, 5 fasting male rabbits
Description: 2.2 mg of anhydrous (A-1)Thr--(AO)Arg--(B30)Des--Thr human insulin were taken up in 1.5 ml of 0.9% strength NaCl solution. 2.2 mg of human insulin, also in 1.5 ml of physiological saline solution, were used as comparison and standard substance. 6.25 microliters of sample solution/kg of live weight were in each case intravenously administered to 5 fasting male rabbits having mean weights of 3.1 kg. 6.25 microliters of standard solution per kg were likewise administered i.v. to 5 other animals. After various times, blood samples were taken and examined for blood sugar concentrations. Within the limits of error, the following measurement results were found: […]

[1] = Subcutaneous administration of a crystal suspension; type: in vivo
[2] = measured by isoelectric focusing; prior art (European Patent 132,769 and 132,770); cited from earlier work

Substance	Change in blood glucose from starting value (fasting male rabbits; 1/2 h) [%]	Change in blood glucose from starting value (fasting male rabbits; 1 h) [%]	Change in blood glucose from starting value (fasting male rabbits; 2 h) [%]	Change in blood glucose from starting value (fasting male rabbits; 3 h) [%]	hypoglycemic action (fasting male rabbits; rabbits, compared with human insulin)	action profile [1]	Change in blood glucose from starting value (fasting male rabbits; 4 h) [%]	isoelectric point [2]
(A-1)Thr--(AO)Arg--(B30)Des--Thr human insulin [(A-1)Thr-(AO)-Arg-(B30)Des-Thr insulin]	-31	-31	-20	-3	of the same order of magnitude as that of the (unmodified) human insulin	acts in a sustained manner		
human insulin	-28	-27	-18	-11			-6	
native insulin: unmodified native insulin								5.4
proinsulin								5.4
